Experimental data as given in patent US7663026B2, “Transformation of seaweed utilizing biolistic gene transfer to spores” (Institute of Oceanology Chinese Academy of Sciences, priority 2003, dated 2010).

Legend:
[1] = test system: Laminaria; assay: Sensitivity of Laminaria to antibiotics/herbicide (selectable reagents); assay type: in vivo; conditions: qualitative ranking
[2] = test system: Undaria; assay: Sensitivity of Undaria to antibiotics/herbicide (selectable reagents); assay type: in vivo; conditions: qualitative ranking

O=C(N[C@H](CO)[C@H](O)c1ccc([N+](=O)[O-])cc1)C(Cl)Cl [chloramphenicol]
sensitivity of the seaweed to the antibiotic or herbicide [1]: sensitive
sensitivity of the seaweed to the antibiotic or herbicide [2]: sensitive
